Measurements published in patent US6107308A, “Piperidine derivatives” (Kowa Co., Ltd., priority 1997, dated 2000).
Counter-ions that a name gives are not always drawn.

What was measured:
[1] = target: histamine-induced contraction of guinea pig ileum (Cavia porcellus, UniProt P31389); assay: Antihistaminic action (in vitro test), isotonic contraction of isolated ileum in response to histamine; settings: histamine 10^-8 to 10^-4 M, 30 min after addition of test compound; for Kb: read-out: Anti-histaminic action pA2 (converted)
Chain of histamine-induced contraction of guinea pig ileum (P31389 whole entry): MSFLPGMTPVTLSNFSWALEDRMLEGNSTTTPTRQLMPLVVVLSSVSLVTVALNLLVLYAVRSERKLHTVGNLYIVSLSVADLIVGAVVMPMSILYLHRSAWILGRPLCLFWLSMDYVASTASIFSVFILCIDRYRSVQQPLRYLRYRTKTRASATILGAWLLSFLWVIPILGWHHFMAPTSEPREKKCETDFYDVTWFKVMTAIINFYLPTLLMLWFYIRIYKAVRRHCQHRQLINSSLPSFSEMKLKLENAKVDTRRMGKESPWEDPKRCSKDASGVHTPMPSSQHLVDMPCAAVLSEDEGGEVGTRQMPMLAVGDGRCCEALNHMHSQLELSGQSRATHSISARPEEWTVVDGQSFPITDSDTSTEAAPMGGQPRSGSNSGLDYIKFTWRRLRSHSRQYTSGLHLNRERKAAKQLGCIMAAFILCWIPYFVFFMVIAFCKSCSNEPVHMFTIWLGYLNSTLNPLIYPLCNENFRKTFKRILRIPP
Protocol: (§1) Antihistaminic action and antileukotriene action (in vitro test):
(§2) A guinea pig was subjected to ileectomy, and the ileum was cut to have a length of about 2 cm. Each piece of ileum was suspended in a Tyrode's buffer placed in a 20-ml organ bath. Isotonic contraction in response to histamine or leukotriene D4 was recorded by use of a recording apparatus. The Tyrode's buffer was aerated with a gas mixture (95% O2 -5% CO2) while the temperature of the buffer was maintained at 30° C. Antihstaminic activity was tested by adding 10^-8 to 10^-4 M histamine to the organ bath and obtaining a dose-response curve. After washing with a buffer several times, a test compound was added to the organ bath. Thirty minutes later, another dose-response curve of histamine was obtained. For the test of antileukotriene activity, effects exerted by addition of a 10^-5 M test compound on the contraction included with 10^-8 M LTD4 was investigated.

[2] = test system: leukotriene D4 (LTD4)-induced contraction of guinea pig ileum; assay: Antileukotriene action (in vitro test), isotonic contraction of isolated ileum induced with LTD4; settings: Cavia porcellus; test compound 10^-5 M, contraction with 10^-8 M LTD4; read-out: LTD4 action (inhibition exerted by a test compound at 10^-5 M)
Protocol: as §1, §2

LTD4 Receptor = target: T1, LTD4 Receptor (Cavia porcellus, UniProt Q2NNR5); assay: LTD4 Receptor binding inhibitory test ([^3 H] leukotriene D4); parameters: species or system guinea pig
T1 construct: guinea pig lung protein; from tissue; host or cells: guinea pig lung
T1 sequence (Q2NNR5 1-340): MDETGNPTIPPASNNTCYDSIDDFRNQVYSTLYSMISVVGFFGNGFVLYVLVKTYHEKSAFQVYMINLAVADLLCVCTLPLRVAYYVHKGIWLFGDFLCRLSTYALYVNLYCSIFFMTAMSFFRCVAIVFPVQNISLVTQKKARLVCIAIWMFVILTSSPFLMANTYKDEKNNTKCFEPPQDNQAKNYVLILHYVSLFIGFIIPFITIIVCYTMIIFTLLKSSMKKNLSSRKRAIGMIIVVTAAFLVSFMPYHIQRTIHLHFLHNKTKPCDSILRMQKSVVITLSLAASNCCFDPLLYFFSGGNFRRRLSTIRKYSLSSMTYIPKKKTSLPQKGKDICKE
Protocol: LTD4 Receptor binding inhibitory test:
Reaction was stopped by addition of ice-cold Tris-HCl/NaCl (10 mM/100 mM, pH 7.5) buffer, and immediately thereafter, the reaction mixture was filtered by use of a Wattman CF/C filter. The filter was washed twice, each time with 20 ml ice-cold buffer. Radioactivity of the residue was measured by use of a liquid scintillation counter. […] In a saturation test, 2 μM leukotriene D4 was used for the measurement of the amount of non-specific binding.

H1 receptor [3] = target: H1 receptor (Cavia porcellus, UniProt P31389); assay: biochemical; assay type: binding, guinea pig
Chain of H1 receptor (Cavia porcellus, UniProt P31389) (P31389 whole entry): as the sequence (P31389 whole entry) above
Protocol: H1 receptor binding inhibitory test:
Reaction was stopped by addition of ice-cold phosphate buffer, and immediately thereafter, the reaction mixture was filtered by use of a Wattman CF/C filter. The filter was washed twice, each time with 20 ml ice-cold buffer. Radioactivity of the residue was measured by use of a liquid scintillation counter. From the value as obtained when a test compound was not added and values as obtained when the test compound was added at different concentrations, there was determined a dose-response curve representing suppression action of the test compound, from which a 50% inhibitory concentration (IC50) was obtained. Based on the IC50 value and by use of the Cheng-Prusoff equation, a dissociation constant (KD) was calculated (Table 4). In a saturation test, 10^-4 M R(-)-dimethindene was used for the measurement of the amount of non-specific binding.

H1 receptor [4] = target: T2, H1 receptor (Mus musculus, UniProt P70174); assay: Test on migration into the brain (ex vivo [^3 H]mepyramine binding in mouse brain after intraperitoneal administration); parameters: species or system mice; settings: ip
T2 construct: from tissue; host or cells: mouse brain homogenate after intraperitoneal dosing
T2 sequence (P70174 whole entry): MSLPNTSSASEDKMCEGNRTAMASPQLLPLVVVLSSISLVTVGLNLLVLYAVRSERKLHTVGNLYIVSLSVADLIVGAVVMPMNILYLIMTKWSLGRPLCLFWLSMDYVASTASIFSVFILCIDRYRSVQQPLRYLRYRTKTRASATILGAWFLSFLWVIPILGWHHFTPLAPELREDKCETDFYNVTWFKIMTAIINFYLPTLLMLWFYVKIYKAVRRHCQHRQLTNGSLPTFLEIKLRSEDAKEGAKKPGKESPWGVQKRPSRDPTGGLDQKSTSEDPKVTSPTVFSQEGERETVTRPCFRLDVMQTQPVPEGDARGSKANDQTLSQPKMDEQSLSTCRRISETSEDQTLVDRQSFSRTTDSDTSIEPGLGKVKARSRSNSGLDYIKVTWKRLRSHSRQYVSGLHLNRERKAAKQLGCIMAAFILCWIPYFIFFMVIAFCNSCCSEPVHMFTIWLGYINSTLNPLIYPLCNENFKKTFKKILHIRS
Protocol: Test on migration into the brain:
The test was performed in accordance with a method described by Zang. […] Briefly, several mice each weighing 20-23 g were provided, and to each mouse was intraperitoneally administered a test sample having a predetermined concentration. One hour later, each mouse was sacrificed and its brain was removed. The brain tissue was mixed with 30 mM Na, K phosphate buffer (pH 7.5) so as to attain a concentration of 40 ml/g wet weight, and the mixture was homogenized. […] The mixture was incubated at 37° C. for 50 minutes. Subsequently, reaction was stopped by addition of ice-cold phosphate buffer, and immediately thereafter, the reaction mixture was filtered by use of a Wattman CF/C filter. The filter was washed twice, each time with 20 ml ice-cold buffer. Radioactivity of the residue was measured by use of a liquid scintillation counter. […] The cerebral migration index, BPindex, was calculated from the following equation.
BPindex=IC50 (mg/kg)/dissociation constant for H1 recepters (nM)

[5] = test system: leukotriene D4 (LTD4)-induced contraction of guinea pig ileum; assay: Antileukotriene action (in vitro test), isotonic contraction of isolated ileum induced with LTD4; settings: Cavia porcellus; contraction with 10^-8 M LTD4

| SMILES | Anti-histaminic action pD'2 [1] | Kb [1] | Kd (LTD4 Receptor) | Kd (H1 receptor [3]) | ED50 (H1 receptor [4]; 1 h, read-out: IC50 (ex vivo)) | IC50 [5] | inhibition at 10 µM [2] | selectivity ratio at 1 h (H1 receptor [4]; brain, BPindex = IC50 (mg/kg)/dissociation constant for H1 receptors (nM), read-out: cerebral migration index, BP index) |
| --- | --- | --- | --- | --- | --- | --- | --- | --- |
| O=C1CSc2cc(OCCCN3CCC(=Cc4ccc5ccccc5n4)CC3)ccc2N1 [Example 2, 7-[3-[4-(2-Quinolylmethylene)piperidino]propoxy]-3,4-dihydro-2H-1,4-benzothiazin-3-one] | 8.22 | – | – | – | – | – | 21% | – |
| Cc1ccc(OCCCN2CCC(=Cc3ccc4ccccc4n3)CC2)c2c1NC(=O)CC2 [Example 3, 8-Methyl-5-[3-[4-(2-quinolylmethylene)piperidino]propoxy]-1,2,3,4-tetrahydroquinolin-2-one] | – | 0.141 nM | 55000 nM | – | – | – | 77% | – |
| O=C1CCc2cc(OCCN3CCC(=Cc4ccc5ccccc5n4)CC3)ccc2N1 [Example 4, 6-[2-[4-(2-Quinolylmethylene)piperidino]ethoxy]-1,2,3,4-tetrahydroquinolin-2-one] | – | – | 12700 nM | 164 nM | – | – | – | – |
| O=C1CCc2cc(OCCCN3CCC(=Cc4ccc5ccccc5n4)CC3)ccc2N1 [Example 5, 6-[3-[4-(2-Quinolylmethylene)piperidino]propoxy]-1,2,3,4-tetrahydroquinolin-2-one] | – | – | 54400 nM | 0.0469 nM | – | – | – | – |
| O=C1CCc2cccc(OCCCN3CCC(=Cc4ccc5ccccc5n4)CC3)c2N1 [Example 8, 8-[3-[4-(2-Quinolylmethylene)piperidino]propoxy]-1,2,3,4-tetrahydroquinolin-2-one oxalate] | – | 0.224 nM | – | – | – | – | 30% | – |
| O=C1CCc2ccc(OCCCN3CCC(=Cc4ccc5ccccc5n4)CC3)cc2N1 [Example 9, 7-[3-[4-(2-Quinolylmethylene)piperidino]propoxy]-1,2,3,4-tetrahydroquinolin-2-one oxalate] | – | 2.95 nM | – | – | – | – | 15% | – |
| Cc1ccc(OCCN2CCC(=Cc3ccc4ccccc4n3)CC2)c2ccc(=O)[nH]c12 [Example 10, 8-Methyl-5-[2-[4-(2-quinolylmethylene)-piperidino]ethoxy]carbostyryl] | – | 0.0832 nM | 9860 nM | 0.0351 nM | 33 mg/kg | – | 61% | 930 |

Continued, in another order:

| Anti-histaminic action pD'2 [1] | Kb [1] | Kd (LTD4 Receptor) | Kd (H1 receptor [3]) | ED50 (H1 receptor [4]; 1 h, read-out: IC50 (ex vivo)) | IC50 [5] | SMILES | inhibition at 10 µM [2] | selectivity ratio at 1 h (H1 receptor [4]; brain, BPindex = IC50 (mg/kg)/dissociation constant for H1 receptors (nM), read-out: cerebral migration index, BP index) |
| --- | --- | --- | --- | --- | --- | --- | --- | --- |
| – | 0.219 nM | 20000 nM | – | – | – | Cc1ccc(OCCCN2CCC(=Cc3ccc4ccccc4n3)CC2)c2ccc(=O)[nH]c12 [Example 11, 8-Methyl-5-[3-[4-(2-quinolylmethylene)-piperidino]propoxy]carbostyryl] | 39% | – |
| – | 0.178 nM | 15800 nM | 0.0238 nM | – | – | O=C1CCCc2cc(OCCCN3CCC(=Cc4ccc5ccccc5n4)CC3)ccc2N1 [Example 12, 7-[3-[4-(2-Quinolylmethylene)piperidino]propoxy]-2,3,4,5-tetrahydro-1H-benz[b]azepin-2-one oxalate] | 12% | – |
| – | 0.174 nM | 19000 nM | 1.15 nM | – | – | O=C1NCCCc2cc(OCCCN3CCC(=Cc4ccc5ccccc5n4)CC3)ccc21 [Example 13, 7-[3-[4-(2-Quinolylmethylene)piperidino]propoxy]-2,3,4,5-tetrahydro-1H-benz[c]azepin-1-one oxalate] | 39% | – |
| – | 0.0525 nM | 98900 nM | – | – | – | C(=C1CCN(CCCOc2ccc3c(c2)CCCc2nnnn2-3)CC1)c1ccc2ccccc2n1 [Example 14, 8-[3-[4-(2-Quinolylmethylene)piperidino]propoxy]-5,6-dihydro-4H-tetrazolo[1,5-a]benz[b]azepine oxalate] | 40% | – |
| – | 0.324 nM | 8060 nM | 3.1 nM | – | – | Cc1ccc(OCCCN2CCC(Cc3ccc4ccccc4n3)CC2)c2c1NC(=O)C2(C)C [Example 15, 4-[3-[4-(2-quinolylmethyl)piperidino]-propoxy]-3,3,7-trimethyl-2,3-dihydro-1H-indol-2-one] | 19% | – |
| 8.01 | – | – | – | – | – | O=C1CSc2cc(OCCCN3CCC(Cc4ccc5ccccc5n4)CC3)ccc2N1 [Example 16, 7-[3-[4-(2-Quinolylmethyl)piperidino]propoxy]-3,4-dihydro-2H-1,4-benzothiazin-3-one] | 15% | – |
| – | 0.166 nM | – | – | – | – | Cc1ccc(OCCN2CCC(Cc3ccc4ccccc4n3)CC2)c2c1NC(=O)CC2 [Example 17, 8-Methyl-5-[2-[4-(2-quinolylmethyl)piperidino]ethoxy]-1,2,3,4-tetrahydroquinolin-2-one] | 23% | – |
| – | 0.468 nM | – | – | – | 3400 nM | Cc1ccc(OCCN2CCC(Cc3ccc4ccccc4n3)CC2)c2ccc(=O)[nH]c12 [Example 25, 8-Methyl-5-[2-[4-(2-quinolylmethyl)-piperidino]ethoxy]carbostyryl] | 88% | – |
| – | 0.162 nM | – | – | – | – | Cc1ccc(OCCCN2CCC(Cc3ccc4ccccc4n3)CC2)c2ccc(=O)[nH]c12 [Example 26, 8-Methyl-5-[3-[4-(2-quinolylmethyl)-piperidino]propoxy]carbostyryl] | 29% | – |
